According to patent US5407660A, “Diagnostic liposomal compositions for enhancing NMR imaging” (Mallinckrodt Medical, Inc., priority 1993, dated 1995):
“And” between values parts separate entries of the source, which are not always exact repeats. Equal values may be shown once. Read-outs that look alike come from different tables or passages of the source.

Key:
[1] = Acute intravenous toxicity of GdNa2 DTPA in mice (Example 7); type: in vivo, Swiss CF-1 albino mice
Description: The acute intravenous toxicity of disodium (diethylenetriaminepentaacetato)gadolinium (III) (composition C of Example 1) was studied.
A total of 16 Swiss CF-1 albino mice (8 male, 22.0-25.6 g; 8 female, 18.2-24.1 g) were used. Picric acid markings were used for individual identification.
The protocol of Example 4 was used. Groups of 2-4 mice, with sexes equally represented, received single intravenous doses of the test substance according to the following schedule: […]

[2] = Abdominal NMR imaging in rabbits (Example 11); type: in vivo
Protocol: Two rabbits were anesthetized and abdominal NMR images were obtained in the General Electric NMR scanner. Rabbits then received intravenous doses of 0.3 ml/kg (0.5 mmol Gd(III)/kg) of the preparation of composition D of Example 1 (GdNa2 DTPA) and additional abdominal NMR images were made over a period of two hours after dosing.

[3] = for Blood T1: before contrast 510
[4] = 0.34 mmol Gd(III)/kg, 10 minutes

O=C([O-])CN(CCN(CC(=O)[O-])CC(=O)[O-])CCN(CC(=O)[O-])CC(=O)[O-].[Gd+3].[Na+].[Na+] [GdNa2 DTPA, disodium (diethylenetriaminepentaacetato)gadolinium (III)]
dose up to which no deaths were observed ([1]; intravenous, mice): 12 g/kg and 12.0 g/kg
acute intravenous toxicity profile (in words) ([1]; mouse): relatively safe mouse acute intravenous toxicity profile
body weight (in words) ([1]; mouse, in vivo): slight reduction in body weight
respiratory distress ([1]; mouse, in vivo): respiratory distress was observed
time until all mice appeared normal ([1]; mouse, in vivo): ≤ 6 h
renal medulla and renal cortex proton images ([2]; 0.3 ml/kg (0.5 mmol Gd(III)/kg) i.v.): Marked alteration
time of peak effects on renal images ([2]; 0.3 ml/kg i.v.): ≤ 15 min
Mean T1, Blood (0.51 mmol/kg, 5 minutes): 292 ms
Mean T1, Blood (0.51 mmol/kg, 10 minutes): 321 ms
Mean T1, Blood (0.51 mmol/kg, 15 minutes): 337 ms
Mean tissue T1, Fat (0.51 mmol/kg, 15 minutes): 61 ms
Mean tissue T1, Heart (0.51 mmol/kg, 15 minutes): 267 ms
Mean tissue T1, Large Intestine (0.51 mmol/kg, 15 minutes): 228 ms
Mean tissue T1, Liver (0.51 mmol/kg, 15 minutes): 172 ms
Mean tissue T1, Lung (0.51 mmol/kg, 15 minutes): 303 ms
Mean tissue T1, Pancreas (0.51 mmol/kg, 15 minutes): 172 ms
Mean tissue T1, Renal Cortex (0.51 mmol/kg, 15 minutes): 137 ms
Mean tissue T1, Renal Medulla (0.51 mmol/kg, 15 minutes): 130 ms
Mean tissue T1, Skel. Muscle (0.51 mmol/kg, 15 minutes): 217 ms
Mean tissue T1, Small Intestine (0.51 mmol/kg, 15 minutes): 224 ms
Mean tissue T1, Spleen (0.51 mmol/kg, 15 minutes): 257 ms
Mean tissue T1, Stomach (0.51 mmol/kg, 15 minutes): 219 ms
changes in T1 relative to changes in T2 (0.1, 0.3 and 1.0 ml/kg i.v.): generally greater than changes in T2 values
tissue and blood T1 and T2 values (in words) (0.1, 0.3 and 1.0 ml/kg i.v.): Dose-related changes in tissue and blood T1 and T2 values
tissues with the most profound effects on T1 (0.1, 0.3 and 1.0 ml/kg i.v.): blood and kidneys (both cortex and medulla) with large intestine, pancreas and stomach the next most sensitive
Cardiovascular effects (rabbit, in vivo, iv): minimal
T1, infarcted regions of heart muscle ([3]; 0.17 mmol Gd(III)/kg, 10 minutes): 290 ms
T1, normally perfused myocardial tissue ([3]; 0.17 mmol Gd(III)/kg, 10 minutes, untreated 330): 180 ms
average T1, infarcted tissue ([3]; 0.34 mmol Gd(III)/kg): 230 ms
Blood T1 ([3]; 0.34 mmol Gd(III)/kg, 5 minutes): 50 ms
images of excised hearts, normal versus infarcted tissue [3, 4]: marked differences between normal and infarcted tissues
Blood T1 [3, 4]: 100 ms
average T1, normally perfused myocardium ([3]; 0.34 mmol Gd(III)/kg, untreated 330): 135 ms
